Data reported in patent publication US11867660B2, “Electronic control of the pH of a solution close to an electrode surface” (Robert Bosch GmbH, priority 2015, dated 2024).

How the values were obtained:
[1] = Electro-oxidation/reduction of species at indium tin oxide electrode (voltammetry); type: physicochemical
Description: FIG. 7B: Cyclic voltammetric study of the oxidation of Ascorbic acid test in ITO electrodes. Current increase around 0.25V indicates the start of oxidation at ITO electrodes.
Electrode material used: The electrode material was indium tin oxide. This is a semiconducting electrode surface with very large potential window in an aqueous solution.
Oxidation of ascorbic acid at the electrode surfaces produced H^+ ions and changed the electrode surface pH to a more acidic state: AH2→A+2H^++2e^−, where AH2 is ascorbic acid ([…]) (as shown in FIG. 5). The electrode potential at which it oxidizes was less than 0.5V for Indium tin oxide material vs Ag/AgCl reference electrode (as shown in FIG. 7). This potential was less than the voltages needed for the oxygen evolution reaction in aqueous solution. Higher electrode potential (e.g. >1V for ITO electrodes in just phosphate buffer) can damage the PEG layer (as shown in FIG. 8). The ascorbic acid also acted as a sacrificial species to prevent electrochemical degradation of the surface chemistry.
Reduction of benzoquinone (C6H4O2) into Hydroquinone (C6H6O2) can produce OH− ions at −0.1V: BQ+2e^−+2H2O→HQ+2OH^− This reduction reaction increased the pH at the electrode interface.

[2] = molecular target: Green Fluorescent Protein (GFP) (Aequorea victoria, UniProt P42212); assay: GFP fluorescence intensity after incubation with benzoquinones (protein stability); type: biochemical; details: 0.5 mM benzoquinone, phosphate buffered saline, 30 min
Description: Para-benzoquinones and ortho-benzoquinones (compounds 2, 4, 6, and 9 in FIG. 22) are susceptible to nucleophilic attack at the double bond of the ring (positions 2, 3, 5 and 6 in structure 2 of FIG. 22, positions 3, 4, 5 and 6 in structure 4 of FIG. 22, and positions 2 and 3 in structure 6 of FIG. 22). Introducing substituents at some or all of those positions can mitigate the problem of nucleophilic attack. For example, 1,4-benzoquinone (structure 2 in FIG. 22, where R1, R2, R3 and R4 are H) undergoes Michael addition reaction with amino groups of proteins (Loomis et al., Phytochemistry, 5, 423, (1966) and U.S. Pat. No. 6,753,312 B2). […] Fluorescence intensity of Green Fluorescent Protein (GFP) was measured after incubation with three different benzoquinones in phosphate buffered saline for 30 min (concentration of benzoquinones was 0.5 mM). The difference in fluorescence intensity indicates the varied effect that the different substitutions in benzoquinones have on the stability of GFP. Fluorescence intensity of GFP is indicative of its structural integrity. Losses in fluorescence intensity usually indicate loss of its tertiary structure (protein denaturation) (Yin D. X., Zhu L., Schimke R. T. Anal. Biochem. 1996, 235:195-201).

start of oxidation (current increase), cyclic voltammetry ([1]; ITO electrodes)	electrode potential at which it oxidizes ([1]; Indium tin oxide vs Ag/AgCl reference electrode)	SMILES	loss in GFP fluorescence intensity [2]	potential of reduction into hydroquinone producing OH- ions [1]
around 0.25 V	less than 0.5 V	O=C1O[C@H]([C@@H](O)CO)C(O)=C1O [ascorbic acid]		
		O=C1C=CC(=O)C=C1 [unsubstituted benzoquinone, 1,4-benzoquinone]	25%	−0.1 V
